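How tested: cells in 96-well plates exposed to compound for 48 hours at five concentrations. TGI: total growth inhibition.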
Tests used:
Test in all cases: growth of human tumour cells (NCI), 48 h
MOLT-4 leukemia = system: MOLT-4 leukemia
COLO 205 colon = system: COLO 205 colon
ACHN renal = system: ACHN renal
NCI-H226 lung = system: NCI-H226 lung
SNB-75 CNS = system: SNB-75 CNS
CCRF-CEM leukemia = system: CCRF-CEM leukemia
MDA-MB-435 = system: MDA-MB-435
HCT-15 colon = system: HCT-15 colon
SW-620 colon = system: SW-620 colon
786-0 renal = system: 786-0 renal
NCI-H522 lung = system: NCI-H522 lung
NCI-H460 lung = system: NCI-H460 lung
HT29 colon = system: HT29 colon
KM12 colon = system: KM12 colon
TK-10 renal = system: TK-10 renal
HOP-62 NSCLC = system: HOP-62 NSCLC
MDA-N = system: MDA-N
SK-MEL-5 melanoma = system: SK-MEL-5 melanoma
SF-295 CNS = system: SF-295 CNS
A498 renal = system: A498 renal

SMILES | TGI (MOLT-4 leukemia) [µM] | TGI (COLO 205 colon) [µM] | TGI (ACHN renal) [µM] | TGI (NCI-H226 lung) [µM] | TGI (SNB-75 CNS) [µM] | TGI (CCRF-CEM leukemia) [µM] | TGI (MDA-MB-435) [µM] | TGI (HCT-15 colon) [µM] | TGI (SW-620 colon) [µM] | TGI (786-0 renal) [µM] | TGI (NCI-H522 lung) [µM] | TGI (NCI-H460 lung) [µM] | TGI (HT29 colon) [µM] | TGI (KM12 colon) [µM] | TGI (TK-10 renal) [µM] | TGI (HOP-62 NSCLC) [µM] | TGI (MDA-N) [µM] | TGI (SK-MEL-5 melanoma) [µM] | TGI (SF-295 CNS) [µM] | TGI (A498 renal) [µM]
CC(C)CC(=O)NC(NC(C)C)(C(F)(F)F)C(F)(F)F | > 100 | > 100 | > 100 | > 100 | > 100 | > 100 | > 100 | > 100 | > 100 | > 100 | > 100 | > 100 | > 100 | > 100 | > 100 | > 100 | > 100 | > 100 |  | 
O=C(CCc1ccc(O)c(O)c1)NCCc1cc(OCc2ccccc2)cc(OCc2ccccc2)c1 |  | 14.6 | 19.3 | 48.2 | 22.2 | 11.5 | 60.8 | 11 | 76.1 | 40 | 4.62 | 20.2 | 77.8 | 34.7 | 41.5 | 37 | 29.2 | 28.7 | 38.9 | 37.7
COC(=O)/C=C1/N=C(N(C)/N=C/c2ccccc2)NC1=O | > 100 | > 100 |  |  | > 100 | > 100 |  | > 100 | > 100 | > 100 | > 100 | > 100 | > 100 | > 100 | > 100 | > 100 | > 100 | > 100 | > 100 | 
CCN(CC)Cc1nc(C2CCC([N+](=O)[O-])O2)no1 (centres undefined) | > 100 | 30.3 | > 100 | > 100 | 96.6 | > 100 | 35.7 | 38.1 | 35.9 | > 100 | 31 | 44.5 | 44.5 | > 100 | > 100 | 82.7 | 37.5 | 30.2 | > 100 | 
CC1(C)CN=C(Nc2ccc(Cl)cc2)S1 | > 100 | > 100 | > 100 | > 100 | > 100 | > 100 | > 100 | > 100 | > 100 | > 100 | > 100 |  | > 100 | > 100 | > 100 | > 100 | > 100 | > 100 | > 100 | 
CC(=O)NCCc1c[nH]c2ccc(Cl)cc12 | > 100 | > 100 | > 100 | > 100 | > 100 | > 100 | > 100 | > 100 | > 100 | > 100 | > 100 | > 100 | > 100 | > 100 | > 100 | > 100 | > 100 | > 100 | > 100 | 
CC(C)[Si](OC1=C(C(=O)N(C)c2ccccc2Cl)CCC1)(C(C)C)C(C)C | > 100 | 34.3 | 36.3 | 40.3 | 29.1 |  | 42.7 | 30.6 | 46.9 | 48.9 | 28.6 | 62.1 | 29 | 50.2 | 39.1 | 32.3 | 38.8 | 41.2 | 27.6 | 30.7
OCC1OC(n2nc(-c3ccccc3)nc2-c2cnccn2)C(O)C1O (centres undefined) | > 100 | > 100 |  |  | > 100 | > 100 | > 100 | > 100 | > 100 | > 100 | > 100 | > 100 | > 100 | > 100 | > 100 | > 100 | > 100 | > 100 | > 100 | 
O=c1cc(CC(O)(C(F)(F)Cl)C(F)(F)Cl)[nH]n1-c1ccccc1 | > 100 | > 100 | > 100 | > 100 | > 100 | > 100 | > 100 | > 100 | > 100 | > 100 |  | > 100 | > 100 | > 100 | > 100 | > 100 |  | > 100 | > 100 | > 100
Cc1ccc(S(=O)(=O)Oc2ccc(OS(=O)(=O)c3ccc(C)cc3)c3c2C(=O)c2ccccc2C3=O)cc1 | > 100 | > 100 | > 100 | > 100 | 64.1 | > 100 | > 100 | > 100 | > 100 | > 100 | > 100 | > 100 | > 100 | > 100 | > 100 | > 100 | > 100 | > 100 |  | 
CCCCNC(=O)Nc1c(C(N)=O)c2n(c1C(=O)OCC)CCCCC2 | > 100 | > 100 | > 100 | > 100 | > 100 | > 100 | > 100 | > 100 | > 100 | > 100 |  | > 100 | > 100 | > 100 | > 100 | > 100 |  | > 100 | > 100 | > 100
COC(=NCCC1=CCCCC1)OC | > 100 | 31.2 | > 100 |  | > 100 | > 100 | > 100 | > 100 | > 100 | > 100 | > 100 | > 100 | 82.9 | > 100 | > 100 | > 100 | > 100 | > 100 | > 100 | > 100
CC1C/C(=N\N(C)C)C(C#N)(C#N)C1(C#N)C#N (centres undefined) | 6.9 | 5.67 | 23.1 | > 65.9 | 27 | > 100 | 37.4 | 21.1 | > 100 | 14.6 | 4.13 |  | 18.7 | > 31.6 | 27.6 | 39.4 | 33 | 44.2 | 43.2 | 
COc1ccc(C(C2C(=O)N(C)C(=O)N(C)C2=O)C(F)(F)C(=O)N(C)C)cc1 (centres undefined) |  | > 100 | > 100 | > 100 | > 100 | > 100 | > 100 | > 100 | > 100 | > 100 |  | > 100 |  | > 100 | > 100 | > 100 |  | > 100 | > 100 | > 100
Cc1ccc(-n2c(Cn3nnc(-c4cccnc4)n3)nn(C3OC(COC(=O)c4ccccc4)C(OC(=O)c4ccccc4)C3OC(=O)c3ccccc3)c2=S)cc1 (centres undefined) | > 100 | > 100 | > 100 | > 100 | > 100 | > 100 | > 100 | > 100 | > 100 | > 100 | > 100 | > 100 | > 100 | > 100 | > 100 | > 100 | > 100 | > 100 | > 100 | 
Cc1c(C(=O)O)c2cc3ccccc3cc2c(=O)n1C |  |  | > 10 | > 10 | > 10 |  | > 10 | > 10 | > 10 | > 10 | > 10 | > 10 | > 10 | > 10 | > 10 |  | > 10 |  | > 10 | 
CC(=O)OCC12C(OC(C)=O)C[C@@H](C)C3(CC(c4ccoc4)OC3=O)C1CCC(O)C21CO1 (some centres undefined) | > 100 | > 100 | > 100 | > 100 | > 100 |  | > 100 | > 100 |  | > 100 | > 100 |  | > 100 | > 100 | > 100 | > 100 | > 100 | > 100 | > 100 | > 100
COc1cc(C(N)=O)cc(NC(=O)/C=C/c2ccccc2)c1OC | > 100 | > 100 | > 100 |  | 93.1 | > 100 | > 100 | > 100 | > 100 | > 100 | > 100 | > 100 | > 100 | > 100 | > 100 | > 100 | > 100 | > 100 | > 100 | > 100
Cc1cc2c(cc1C)[n+](=O)c(N1CCN(c3ccc([N+](=O)[O-])cc3)CC1)c(C#N)n2[O-] |  | > 100 | 50.8 | > 100 | 21.7 | > 100 | > 100 | > 100 | > 100 | 59.8 | 88.3 | 70 | > 100 | > 100 | 35.3 | 31.7 | > 100 | > 100 | 37.8 | > 100
CN1CCN(C(=S)N(C(=O)c2ccco2)c2ccccc2)CC1 | > 100 | > 100 | > 100 | > 100 | > 100 | > 100 | > 100 | > 100 | > 100 | > 100 | > 100 | > 100 | > 100 | > 100 | > 100 |  | > 100 | > 100 | > 100 | 
COc1ccccc1S(=O)Nc1ccccc1 (centres undefined) | > 100 | > 100 | > 100 | > 100 |  | > 100 | > 100 | > 100 | > 100 | > 100 | > 100 | > 100 | > 100 | 85.1 | > 100 | > 100 | > 100 | > 100 | > 100 | 
COc1ccc(C2=NN(c3ccccc3)C(c3cc4cc(Br)ccc4nc3Cl)C2)cc1 (centres undefined) | > 25 | > 25 |  | > 25 | > 25 | > 25 | > 25 | > 25 | > 25 | > 25 | > 25 |  | > 25 | > 25 |  | > 25 | > 25 | > 25 | > 25 | 
C=C1CC(Cn2cc(C)c(=O)[nH]c2=O)(c2ccc(-c3ccccc3)cc2)OC1=O (centres undefined) | 2.8 | 2.89 | 6.65 | 35.5 | 21.8 |  | 3.74 | 3.72 | 1.91 | 2.22 | 3.59 | 20.8 | 2.42 | 7.36 | 2.76 | 29.4 | 2.75 | 2.56 | 14.2 | 16.9
C=C(C)[C@@]1(O)CCC[C@H]1NC(=O)OC(C)(C)C |  | > 100 | > 100 | > 100 | > 100 | > 100 | > 100 | > 100 | > 100 | > 100 | > 100 | > 100 | > 100 | > 100 | > 100 | > 100 | > 100 | > 100 | > 100 | > 100
Cc1ccc(CS(=O)(=O)C/N=c2\sc3ccccc3nc2/C=C(\O)c2ccc(Cl)cc2)cc1 | > 10 | > 10 | > 10 |  | > 10 |  | > 10 | > 10 | > 10 | > 10 | > 10 |  | > 10 | > 10 | > 10 | > 10 | > 10 | > 10 | > 10 | 
Nc1nc(NNc2ccc(Cl)c(Cl)c2)cc(=O)[nH]1 | 90.3 | 61.1 | > 100 | > 100 |  | > 100 | 74.1 | 58.7 | 61.1 | 67.5 |  | > 100 | > 100 | > 100 | > 100 | > 100 | > 100 | > 100 | > 100 | > 100
